Tests used:
Assay type in all cases: cell-based
[1] = system: ΔERGIC-53 HCT116 cells; experiment: EPO secretion level (ELISA) from ERGIC-53 KO HCT116 cells
Text: (§1) The guide RNAs (gRNAs) flanking the target enhancer regions for ERGIC-53 and MCFD2 were designed using ToolGen’s dRGEN synthesis service (Seoul, South Korea). The target DNA sequences of the gRNAs used in the present study were as follows: for MCFD2 deletion, […], and for ERGIC-53 deletion, […]. The gRNA expression plasmids (pRGEN-U6-sgRNA) were purchased from ToolGen. To generate the KO cells of MCFD2 or ERGIC-53, individual gRNA plasmids and a plasmid-expressing Cas9-green fluorescent protein (GFP) (Addgene, catalog #44719) were transiently transfected into HCT116 cells, which are diploid cells suitable for genome editing using the CRISPR/Cas9 method, in a six-well plate using polyethylenimine “Max” (Polysciences Inc., Warrington, PA) and a Cas9:gRNA molar ratio of 1:5 as described previously. At 48 h post transfection, cells with high GFP expression were identified using fluorescence-activated cell sorting with the BD FACSAria II cell sorter (BD Biosciences, San Jose, CA). For knocking out ERGL in the wild-type and ERGIC-53-KO cells, the Guide-it CRISPR/Cas9 System (green/red) (Takara Bio Inc., Kusatsu, Japan) was used for the cloning and expression of target single gRNAs, whose target ERGL DNA sequences were […] and […]. The two constructed pGuide-it Vectors (green and red) were transiently transfected into HCT116 cells. At 48 h post transfection, cells with high ZsGreen1 and tdTomato expression were identified using fluorescence-activated cell sorting. Sorted cells were plated into individual wells of a 96-well plate and then re-plated as single cells in 6 cm dishes. The deletions in the clones were confirmed by polymerase chain reaction and sequencing analysis (Supplementary Figs. 8, 9, 10, and 11).
(§2) For expression of the FVIII and FV full-length and deletion mutant proteins in mammalian cells, the codon-optimized FVIII and FV genes were inserted into the p3XFLAG-CMV-14 Expression Vector and p3XFLAG-CMV-9 Expression Vector, respectively (Sigma-Aldrich, St. Louis, MO). For the expression of the wild-type and mutated AAT, EPO, and sFγRIIIa in mammalian cells, the corresponding genes (purchased from FASMAC Co., Ltd., Atsuki, Japan) were inserted into the p3XFLAG-CMV-9 Expression Vector (Sigma-Aldrich). […]
(§3) The secreted levels of FVIII and FV antigens in the culture medium were determined with an sandwich enzyme-linked immunosorbent assay (ELISA) method using the VisuLize FVIII Antigen Kit (Affinity Biologicals Inc., Ancaster, ON) and the Asssay Max™ Human Factor V ELISA Kit (ASSAYPRO, MO), respectively. The secreted levels of AAT and EPO antigens in the culture medium were determined with an ELASA method using the anti-AAT antibody (Agilent, Santa Clara, CA) and anti-Flag M2 antibody (Sigma-Aldrich), respectively.

[2] = system: ΔMCFD2 HCT116 cells; experiment: EPO secretion level (ELISA) from MCFD2 KO HCT116 cells
Text: as §1, §2, §3

[3] = system: HCT116 cells; experiment: RUSH imaging of ER-to-Golgi transport; conditions: for colocalized fraction with GM130 (Manders' M1), average: mScarlet-I fusion
Method: For live-cell imaging using RUSH system, li-Str_ST-SBP-mCherry (Plasmid #65269) was purchased from Addgene. We replaced mCherry with mScarlet-I-EPO or mScarlet-I-EPO-motif (SbfI/XbaI). HCT116 cells were plated on 35-mm glass-based dishes, which were coated with poly-L-lysine, and grown overnight. RUSH plasmids to express mScarlet-I-EPO and mScarlet-I-EPO-motif were individually transfected into the cells using Expifectamine^TM 293 reagent. After 24 h, the medium was changed into DMEM including 40 μM (+)-biotin for starting the translocation form ER. […] After blocking with Blocking One solution (Nacalai Tesque), the cells were incubated with polyclonal rabbit anti-GM130 (Proteintech, 11308-1-AP, dilution 1 :1000) and then with Alexa Fluor 488-conjugated anti-rabbit IgG antibody [Jackson ImmunoResearch (West Grove, PA), 711-545-152, dilution 1:1000] in 20 mM Tris-HCl (pH 7.6) containing 150 mM NaCl and 0.05% Tween-20. Cell images were recorded using a fluorescence microscope BZ-X700 and BZ-H3XF/Sectioning Module (Keyence Co., Osaka, Japan) and analyzed by Fiji[31]. For quantification of co-localization of EPO proteins and GM130, the images were thresholded by the Otsu method and analyzed by calculating Manders’ coefficient (M1) with Coloc2 plugin[32]. Because of abnormal distribution of the imaging data based on Shapiro–Wilk normality test, nonparametric statistics were used for the analysis. All statistical analysis was performed in the R statistical environment version 3.5.3[33].

[4] = average, n = 3, EPO in wild type = 1

EPO: recombinant Flag-tagged erythropoietin without motif (Fig. 5 prints EPO for mScarlet-I-EPO)
EPO secretion level (Figure 4D), average [1, 4]: 1.297
EPO secretion level (Figure 4D) ([1]; replicate 1): 1.122
EPO secretion level (Figure 4D) ([1]; replicate 2): 1.395
EPO secretion level (Figure 4D) ([1]; replicate 3): 1.373
EPO secretion level (Figure 4D), average [2, 4]: 0.9208
EPO secretion level (Figure 4D) ([2]; replicate 1): 0.5997
EPO secretion level (Figure 4D) ([2]; replicate 2): 1.0013
EPO secretion level (Figure 4D) ([2]; replicate 3): 1.162
colocalized fraction with GM130 (Manders' M1) ([3]; 0 min, Figure No. 1): 0.028
colocalized fraction with GM130 (Manders' M1) ([3]; 0 min, Figure No. 2): 0.024
colocalized fraction with GM130 (Manders' M1) ([3]; 0 min, Figure No. 3): 0.051
colocalized fraction with GM130 (Manders' M1) ([3]; 0 min, Figure No. 4): 0.098
colocalized fraction with GM130 (Manders' M1) ([3]; 0 min, Figure No. 5): 0.14
colocalized fraction with GM130 (Manders' M1) ([3]; 0 min, Figure No. 6): 0.098
colocalized fraction with GM130 (Manders' M1) ([3]; 0 min, Figure No. 7): 0.128
colocalized fraction with GM130 (Manders' M1) ([3]; 0 min, Figure No. 8): 0.018
colocalized fraction with GM130 (Manders' M1) ([3]; 0 min, Figure No. 9): 0.026
colocalized fraction with GM130 (Manders' M1), average ([3]; 0 min after biotin (40 μM), n = 9 cells): 0.06789
colocalized fraction with GM130 (Manders' M1) ([3]; 30 min, Figure No. 1): 0.115
colocalized fraction with GM130 (Manders' M1) ([3]; 30 min, Figure No. 2): 0.302
colocalized fraction with GM130 (Manders' M1) ([3]; 30 min, Figure No. 3): 0.628
colocalized fraction with GM130 (Manders' M1) ([3]; 30 min, Figure No. 4): 0.57
colocalized fraction with GM130 (Manders' M1) ([3]; 30 min, Figure No. 5): 0.472
colocalized fraction with GM130 (Manders' M1) ([3]; 30 min, Figure No. 6): 0.508
colocalized fraction with GM130 (Manders' M1) ([3]; 30 min, Figure No. 7): 0.39
colocalized fraction with GM130 (Manders' M1) ([3]; 30 min, Figure No. 8): 0.267
colocalized fraction with GM130 (Manders' M1) ([3]; 30 min, Figure No. 9): 0.53
colocalized fraction with GM130 (Manders' M1) ([3]; 30 min, Figure No. 10): 0.285
colocalized fraction with GM130 (Manders' M1), average ([3]; 30 min after biotin (40 μM), n = 10 (EPO) or 13 (EPO-motif) cells): 0.4067
ER-to-Golgi trafficking ([3]; 30 min after biotin addition): localized in the Golgi to varying extents depending on the C-terminal motif
localization in RUSH imaging ([3]; before addition of biotin (time 0)): typical ER localization

— publication PMC7069976, “Improved secretion of glycoproteins using an N-glycan-restricted passport sequence tag recognized by cargo receptor” (Nature Communications, 2020)
